Experiments:
Experiment in all cases: Post-emergence herbicidal glasshouse test, percentage damage to the plant
Type in all cases: in vivo
Conditions in all cases: post-emergence, 1000 g/ha, evaluated after 13 days
[1] = system: Alopecurus myosuroides (ALOMY)
Method: (§1) Seeds of a variety of test species are sown in standard soil in pots:—Solanum nigrum (SOLNI), Amaranthus retoflexus (AMARE), Setaria faberi (SETFA), Alopecurus myosuroides (ALOMY), Echinochloa crus-galli (ECHCG), Ipomoea hederacea (IPOHE). After 8 days cultivation (post-emergence) under controlled conditions in a glasshouse (at 24/16° C., day/night; 14 hours light; 65% humidity), the plants are sprayed with an aqueous spray solution derived from the formulation of the technical active ingredient in acetone/water (50:50) solution containing 0.5% Tween 20 (polyoxyethelyene sorbitan monolaurate, CAS RN 9005-64-5). Compounds are applied at 1000 g/ha. The test plants are then grown in a glasshouse under controlled conditions in a glasshouse (at 24/16° C., day/night; 14 hours light; 65% humidity) and watered twice daily. After 13 days, the test is evaluated for the percentage damage caused to the plant. The biological activities are shown in the following table on a five point scale (5=80-100%; 4=60-79%; 3=40-59%; 2=20-39%; 1=0-19%). A comparative experiment is conducted to compare the biological efficacy of a compound of the present invention with those of WO 2011/045271. The test is performed as outlined above using the following compounds. Three different application rates are employed (250 g/ha, 500 g/ha and 1000 g/ha).

[2] = system: Amaranthus retoflexus (AMARE)
Method: as §1

[3] = system: Echinochloa crus-galli (ECHCG)
Method: as §1

[4] = system: Ipomoea hederacea (IPOHE)
Method: as §1

Setaria faberi (SETFA) = system: Setaria faberi (SETFA)
Method: as §1

Solanum nigrum (SOLNI) = system: Solanum nigrum (SOLNI)
Method: as §1

| SMILES | POST Application ALOMY, percentage damage (five point scale) [1] | POST Application AMARE, percentage damage (five point scale) [2] | POST Application ECHCG, percentage damage (five point scale) [3] | POST Application IPOHE, percentage damage (five point scale) [4] | POST Application SETFA, percentage damage (five point scale) (Setaria faberi (SETFA)) | POST Application SOLNI, percentage damage (five point scale) (Solanum nigrum (SOLNI)) |
| --- | --- | --- | --- | --- | --- | --- |
| CN1N=CC(=O)C(n2ccc3c(Br)cccc32)C1=O (stereo not drawn) [Compound 1.005] | 1 (1=0-19%) | 2 (2=20-39%) | 1 (1=0-19%) | 2 (2=20-39%) | 3 (3=40-59%) | 5 (5=80-100%) |
| CC1=NN(C)C(=O)C(n2c(Br)c(Br)c3ccccc32)C1=O (stereo not drawn) [Compound 1.024] | 1 (1=0-19%) | 5 (5=80-100%) | 2 (2=20-39%) | 5 (5=80-100%) | 2 (2=20-39%) | 5 (5=80-100%) |
| CN1N=CC(=O)C(n2ncc3ccccc32)C1=O (stereo not drawn) [Compound 1.009] | 1 (1=0-19%) | 4 (4=60-79%) | 1 (1=0-19%) | 1 (1=0-19%) | 1 (1=0-19%) | 4 (4=60-79%) |
| CN1N=CC(=O)C(n2ccc3ccc(Br)cc32)C1=O (stereo not drawn) [Compound 1.006] | 1 (1=0-19%) | 1 (1=0-19%) | 1 (1=0-19%) | 1 (1=0-19%) | 1 (1=0-19%) | 4 (4=60-79%) |
| CC1=NN(C)C(=O)C(n2c(Br)c(Br)c3ccc(Br)cc32)C1=O (stereo not drawn) [Compound 1.023] | 2 (2=20-39%) | 5 (5=80-100%) | 3 (3=40-59%) | 5 (5=80-100%) | 1 (1=0-19%) | 5 (5=80-100%) |
| CCC1=NN(C)C(=O)C(n2c(Cl)c(Cl)c3ccccc32)C1=O (stereo not drawn) [Compound 2.027] | 1 (1=0-19%) | 4 (4=60-79%) | 1 (1=0-19%) | 5 (5=80-100%) | 1 (1=0-19%) | 5 (5=80-100%) |
| CC(C)COC1=NN(C)C(=O)C(n2c(Cl)c(Cl)c3ccccc32)C1=O (stereo not drawn) [Compound 2.019] | 1 (1=0-19%) | 4 (4=60-79%) | 1 (1=0-19%) | 2 (2=20-39%) | 1 (1=0-19%) | 4 (4=60-79%) |
| CC1=NN(C)C(=O)C(n2cc(Cl)c3ccccc32)C1=O (stereo not drawn) [Compound 1.027] | 1 (1=0-19%) | 4 (4=60-79%) | 3 (3=40-59%) | 4 (4=60-79%) | 1 (1=0-19%) | 5 (5=80-100%) |
| CN1N=C(C(F)F)C(=O)C(n2c(Cl)c(Cl)c3ccccc32)C1=O (stereo not drawn) [Compound 2.002] | 1 (1=0-19%) | 5 (5=80-100%) | 1 (1=0-19%) | 5 (5=80-100%) | 1 (1=0-19%) | 5 (5=80-100%) |
